Test results reported in patent US8435393B2, “Instrument and system for pharmacologic measurement and well vessel used therein” (Panasonic Corporation, priority 2003, dated 2013).

Key:
[1] = tested on: carbachol (CCh) sensitive ion channel; experiment: Intracellular potential response of an HEK cell by the patch clamp method (Comparative Example 2); format: cell-based, human; conditions: HEK-293 cell expressing CCh sensitive ion channel; CCh 100 μM; in 6 sec after CCh is dropped; glass patch pipette
Method: (§1) The solution holding section 17 was filled with a culture fluid and 8000 HEK cells are seeded in the holding section in dispersion. The culture fluid used was HEPES buffer DMEM+10 wt % FBS. A cell was sucked from the back surface to be thereby fitted into the hole and thereafter, the culture fluid was replaced with a measurement solution. A composition of the measurement solution was such that Ringer's solution was contained as a base, a Ca concentration was adjusted to 2 mM and an osmotic pressure was set to […].
In FIG. 13, as Comparative Example 2, there is shown results obtained by measurement of a response of an intracellular potential in an HEK cell for the same medicine in a similar way while a glass patch pipette is attached to the cell using a patch clamp method, which is a conventional method for measurement of an intracellular potential. A CCh concentration was 100 μM in a similar way. […] There is observed a noise change (from F to G in FIG. 13) due to a CCh sensitive channel response.

[2] = tested on: carbachol (CCh) sensitive ion channel; experiment: Extracellular potential (voltage noise) recording of HEK cells with the instrument of Example 1; format: cell-based, human; conditions: HEK-293 cells; Ringer's solution replaced with Ringer's solution containing CCh 100 μM; FIG. 11 between F1 and G1
Method: as §1
FIG. 11 is a graph showing a voltage noise when the above Ringer's solution was replaced with a Ringer's solution containing CCh 100 μM using Example 1. […] It was recognized that a voltage noise is increased by CCh dropping (in FIG. 11, between F1 and G1). On the other hand, in FIG. 12, there is shown results obtained by conducting a similar experiment in a convention method (Comparative Example 1). The measurement was obtained in a procedure in which a first stage amplification in the preamplifier was multiplication by a factor of 100 and thereafter further amplified by a factor of 100. LPF was set at 5 kHz. A medicine (CCh) was dropped only for a time expressed with an open square in the figure.

C[N+](C)(C)CCOC(N)=O [CCh, carbachol]
Depolarization of intracellular potential [1]: about 10 mV | Voltage noise change on CCh dropping [2]: increased
